Reference: patent US11617715B2, “Methods and compositions for modifying the behavior of animals” (Texas Tech University System, priority 2016, dated 2023)

Tested on: dog barking and jumping
Test: Teaser dog kennel test of dog barking and jumping
Assay type: in vivo
Settings: kennel dogs with teaser dog; for effectiveness in reducing barking and jumping (Quinoline compared to Androstenone): Study 3
Protocol: The efficacy of Quinoline was tested in three studies conducted to determine if Quinoline would reduce dog barking and jumping. The composition used in the experiments comprised approximately 4 micrograms per milliliter of Quinoline.
The basic parameters of the test involved walking a teaser dog in the center aisle of a dog kennel with test dogs on either side in kennels. The kennels were chain-linked fence with concrete floors. The researchers walked a teaser dog down the aisle and recorded dogs jumping and barking over a two minute period.
In the first study, three treatments were evaluated. Treatment 1 represented no treatment of any kind. The teaser animal simply stood at the test subjects' kennel.
Treatment 2 represented a control treatment. In this case, the delivery vehicle (isopropyl alcohol) spray was administered without Quinoline.
In treatment 3, Quinoline was administered to the test subject animals.
In study 2, the efficacy of Quinoline alone was tested. Test 2 was conducted a week after test 1. The same procedure was used in study 2 except that the test animals were only subject to the delivery of Quinoline.
In study 3, Quinoline was compared to Androstenone (the compound described in U.S. Pat. No. 9,044,395). Again, the same procedures were used in study 3; the test animals were subject to Quinoline and Androstenone.

[1] = Study 1, treatment 3, Quinoline approximately 4 micrograms per milliliter, spray
[2] = Study 2, Quinoline alone, a week after study 1

Row | Compound | effectiveness in reducing barking and jumping (Quinoline compared to Androstenone) | reduced barking [1] | reduced jumping [1] | reduced barking [2] | reduced jumping [2]
1 | C[C@]12CCC(=O)C[C@@H]1CC[C@@H]1[C@@H]2CC[C@]2(C)C=CC[C@@H]12 [Androstenone, reference compound] | approximately equivalently effective | – | – | – | –
2 | c1ccc2ncccc2c1 [Quinoline] | approximately equivalently effective | 80% | 90% | 100% | 90%
